Literature values in patent US20080125428A1, “Cancer Treatment Method” (priority 2004, published 2008).

Tested on: tumor cells overexpressing EGFR or erbB2
Settings: Rusnak et al., 2001b, Xia et al., 2002

For `CS(=O)(=O)CCNCc1ccc(-c2ccc3ncnc(Nc4ccc(OCc5cccc(F)c5)c(Cl)c4)c3c2)o1` [GW572016, N-{3-chloro-4-[(3-fluorobenzyl)oxy]phenyl}-6-[5-({[2-(methanesulphonyl)ethyl]amino}methyl)-2-furyl]-4-quinazolinamine], the “kinase inhibition in human xenograft studies” value is given as “dose-dependent kinase inhibition” and the “selectivity for tumor cells overexpressing EGFR or erbB2” value (human xenograft studies) is given as “selectively inhibits tumor cells overexpressing EGFR or erbB2”.
